Legend:
[1] = tested on: BXPC-3; experiment: Cell viability assay (CCK-8); type: cell-based; settings: ADCs; CCK-8, 96 hours; cell RMCA [sic], Pancreas; read-out: IC50 (95% Cl)
Procedure: (§1) Cell viability was determined using Cell Counting Kit 8 (CCK-8). Cells were seeded into 96-well plates at 3000-10000 cells/well. After incubation overnight, drugs were added at different concentrations. Plates were incubated in a 5% CO2, 37° C. humidified chamber for 96 hours. CCK8 reagent was added thereto and the plates were placed back to the incubator until the absorbance at 450 nm of untreated control cells was greater than 1.0. Growth inhibition was measured as the percent growth relative to untreated cells. Dose response curve was generated from the mean values of two or three tests, and IC50 values were calculated using Prism GraphPad software.
(§2) The anti-tumor efficacy of different payloads on different tumor cell lines was detected by CCK-8, and the results are shown in FIG. 5.

[2] = tested on: CFPAC-1; experiment: Cell viability assay (CCK-8); type: cell-based; settings: ADCs; CCK-8, 96 hours; cell CPAC-1 [sic], Pancreas; read-out: IC50 (95% Cl)
Procedure: as §1, §2

[3] = tested on: COLO205; experiment: Cell viability assay (CCK-8); type: cell-based; settings: ADCs; CCK-8, 96 hours; cell printed 'COXC28', Colon; read-out: IC50 (95% Cl)
Procedure: as §1, §2

[4] = tested on: Capan-1; experiment: Cell viability assay (CCK-8); type: cell-based; settings: ADCs; CCK-8, 96 hours; Cxoo-1 [sic], Pancreas; read-out: IC50 (95% Cl)
Procedure: as §1, §2

[5] = tested on: HCC1806; experiment: Cell viability assay (CCK-8); type: cell-based; settings: ADCs; CCK-8, 96 hours; 'HOC1906' [sic], Mamary; read-out: IC50 (95% Cl)
Procedure: as §1, §2

[6] = tested on: HT29; experiment: Cell viability assay (CCK-8); type: cell-based; settings: ADCs; CCK-8, 96 hours; cell '3128' [sic], Colon; read-out: IC50 (95% Cl)
Procedure: as §1, §2

[7] = tested on: MDA-MB-231; experiment: Cell viability assay (CCK-8); type: cell-based; settings: ADCs; CCK-8, 96 hours; cell 'SRM-K9-231' [sic], Mamary; read-out: IC50 (95% Cl)
Procedure: as §1, §2

[8] = tested on: NCI-H1688; experiment: Cell viability assay (CCK-8); type: cell-based; settings: ADCs; CCK-8, 96 hours; cell 'HCl-11685' [sic], Lung; read-out: IC50 (95% Cl)
Procedure: as §1, §2

[9] = tested on: NCIH2452; experiment: Cell viability assay (CCK-8); type: cell-based; settings: ADCs; CCK-8, 96 hours; cell 'HOC2401' [sic], Lung; read-out: IC50 (95% Cl)
Procedure: as §1, §2

[10] = tested on: SCLC-21H; experiment: Cell viability assay (CCK-8); type: cell-based; settings: ADCs; CCK-8, 96 hours; SRM-C-21H; read-out: IC50 (95% Cl)
Procedure: as §1, §2

[11] = tested on: SK-MES-1; experiment: Cell viability assay (CCK-8); type: cell-based; settings: ADCs; CCK-8, 96 hours; cell 'SK-WSS-7' [sic], Lung; read-out: IC50 (95% Cl)
Procedure: as §1, §2

[12] = tested on: SKBR3; experiment: Cell viability assay (CCK-8); type: cell-based; settings: ADCs; CCK-8, 96 hours; 'SKERS' [sic], Mammary; read-out: IC50 (95% Cl)
Procedure: as §1, §2

[13] = tested on: tumor cell lines with different expression levels of Trop-2; experiment: Cell viability assay (CCK-8), comparison across the cell panel; type: cell-based
Procedure: as §1, §2

[14] = tested on: MDA-MB-231 or CFPAC-1 cells; experiment: Detection of ADC endocytosis rate by flow cytometry; type: cell-based; settings: Trop-2 expressing cells, 5 µg/mL ADC, 37° C.
Procedure: To assess the endocytosis rate of ADC, MDA-MB-231 or CFPAC-1 cells (1 × 10^6) were incubated with 5 µg/mL of ADC samples in a staining medium for 30 min on ice, and washed twice, and then it was placed in a fresh complete medium. Internalization was initiated in a humidified chamber at 37° C. After the incubation, cells were washed twice with an ice-cold staining medium and then stained with goat anti-human IgG-PE. Cells were analyzed by flow cytometry to detect the level of ADC remaining on the surface.
The internalization rate of ADC may affect its inhibitory efficiency against tumor cells.

[15] = tested on: COLO205 cells; experiment: COLO205 mouse transplanted tumor model; type: in vivo, BALB/c nu/nu mice; settings: COLO205 xenograft, intraperitoneal, days 7, 11, 15, 19; p<0.001 vs hRS7-VK-SN38
Description: (§3) Five-week-old female athymic BALB/c nu/nu mice were purchased from Charles River Company (Shanghai, China), and mice were randomly divided into 5-6 mice/group. Animal handling and procedures were approved and performed in accordance with the requirements of the Institutional Animal Care and Use Committee (IACUC) of Shanghai Institute of Materia Medica, Chinese Academy of Sciences. All models were inoculated subcutaneously on the side of mice. BXPC-3, HCC1806 and NCIH1688 cells were established by injecting and homogenizing 5 × 10^6 cells in Matrigel matrix. COLO205 cells were established by injecting and suspending 1 × 10^7 cells in Matrigel matrix. […] The percentage of inhibition was calculated by the following formula: (1-average tumor volume of the treatment group/average tumor volume of the control group)×100%. Toxicity of the different treatment groups was assessed by monitoring weight loss.
Mice inoculated with COLO205 cells (n = 6 per group) were treated with ADC or control drug on days 7, 11, 15, and 19, and tumor volume was measured two or three times a week. Statistical significance between treatment and control groups was assessed using a two-tailed t-test. ***P<0.001, comparing hRS7-VK-PTX with hRS7; p<0.001, comparing hRS7-VK-PTX with hRS7-VK-SN38, data = mean ± SD, the results are shown in FIG. 1c.

[16] = tested on: HCC1806 cells; experiment: HCC1806 mouse transplanted tumor model; type: in vivo, BALB/c nu/nu mice
Description: as §3
Mice inoculated with HCC1806 cells (n = 6 per group) were treated on days 7, 10 and 14. Tumors were measured two or three times per week. On day 20, statistical significance between treatment and control groups was assessed using a two-tailed t-test. *P <0.05, comparing hRS7-VK-PTX treatment group with hRS7-VK-SN38 treatment group, data = mean ± SD, the results are shown in FIG. 7b.

Work on hRS7-VK-PTX yielded an IC50 [1] of 0.633 nM, an IC50 [2] of 16.8 nM and an IC50 [3] of 4.52 nM. The IC50 [4] was 2.98 nM, the IC50 [5] was 0.266 nM and the IC50 [6] was 3.47 nM. The IC50 [7] was 1.59 nM, the IC50 [8] was 32.4 nM and the IC50 [9] was 1.4 nM. For the same substance, the IC50 [10] was 2.96 nM, the IC50 [11] was 10.1 nM and the IC50 [12] was 1.74 nM. For the same substance, the “efficacy of ADC in tumor cell lines with low expression of Trop-2” value ([13]; COL0205, MDA-MB-231, SK - MES-1, Capan-1, NCIH2452) was “more effective than hRS7-VK-MMAE and hRS7-VK-SN38”, the “inhibitory effect in PTX-resistant tumor cell lines” value ([13]; SKBR3, CFPAC-1, MDA-MB-231 and COLO205) was “good inhibitory effect” and the internalization rate [14] was “faster than hRS7-VK-MMAE and hRS7-VK-SN38”. The “inhibition of transplanted tumor” value [15] was “more effective than hRS7-VK-SN38”, the “tumor inhibitory effect compared with PTX” value ([16]; HCC1806 model, 30 mg/kg (1.3 mg/kg PTX equivalent)) was “comparable to that of 10 mg/kg of PTX” and the “inhibition of transplanted tumor” value ([16]; HCC1806 xenograft, intraperitoneal, days 7, 10, 14, P<0.05 vs hRS7-VK-SN38 on day 20) was “more effective than hRS7-VK-SN38”.

— patent US20230346969A1, “INTERMEDIATE FOR PREPARING ANTIBODY-DRUG CONJUGATE (ADC), PREPARATION METHOD THEREFOR, AND USE THEREOF” (priority 2020, published 2023)
